Laboratory results as given in patent US20090170898A1, “Sulphonamide Derivatives as Modulators of the Glucocorticoid Receptor” (priority 2006, published 2009).

These compounds were tested against T1, recombinant human GR (Homo sapiens, UniProt P04150) (assay: Human Glucocorticoid Receptor (GR) fluorescence polarization binding assay (GRhuFL_FP_v2)). Conditions: GS Red tracer, 2 hours at room temperature, 100% control 10 μM Dexamethasone, read-out: GRhuFL_FP_v2 (GR-binders) IC50.
T1 construct: purchased Panvera/Invitrogen P2812 (kit P2893)
T1 sequence (P04150 1-777): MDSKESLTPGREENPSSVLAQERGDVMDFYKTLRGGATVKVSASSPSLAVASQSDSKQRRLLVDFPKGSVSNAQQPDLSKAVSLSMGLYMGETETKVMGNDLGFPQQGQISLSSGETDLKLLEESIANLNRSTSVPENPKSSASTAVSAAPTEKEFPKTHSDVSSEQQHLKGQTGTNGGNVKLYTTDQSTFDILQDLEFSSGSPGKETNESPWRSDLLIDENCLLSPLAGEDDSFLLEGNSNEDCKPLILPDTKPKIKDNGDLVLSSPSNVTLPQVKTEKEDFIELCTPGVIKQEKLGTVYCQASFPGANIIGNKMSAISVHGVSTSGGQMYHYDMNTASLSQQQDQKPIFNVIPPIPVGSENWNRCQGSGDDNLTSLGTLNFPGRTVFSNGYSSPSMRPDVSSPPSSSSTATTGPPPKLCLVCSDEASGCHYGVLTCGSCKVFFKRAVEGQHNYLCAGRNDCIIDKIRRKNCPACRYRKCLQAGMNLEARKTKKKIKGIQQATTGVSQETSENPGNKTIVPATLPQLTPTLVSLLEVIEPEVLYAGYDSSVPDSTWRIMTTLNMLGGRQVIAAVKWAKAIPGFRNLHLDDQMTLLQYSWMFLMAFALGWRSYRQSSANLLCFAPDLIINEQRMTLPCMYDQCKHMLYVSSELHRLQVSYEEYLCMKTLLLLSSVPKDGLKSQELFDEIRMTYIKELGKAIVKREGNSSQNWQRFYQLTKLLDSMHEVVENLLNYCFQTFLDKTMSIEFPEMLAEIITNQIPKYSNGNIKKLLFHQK
Protocol: Human Glucocorticoid Receptor (GR) Assay
The assay is based on a commercial kit from Panvera/Invitrogen (Part number P2893). The assay technology is fluorescence polarization. […] The GR and Stabilizing Peptide reagents are stored at −70° C. while the GS Red is stored at −20° C. Also included in the kit are 1M DTT (Panvera, Part number P2325, stored at −20° C.) and GR Screening buffer 10× (Panvera, Part number P2814, stored at −70° C. initially but once thawed stored at room temperature). Avoid repeated freeze/thaws for all reagents. The GR Screening buffer 10× comprises 100 mM potassium phosphate, 200 mM sodium molybdate, 1 mM EDTA and 20% DMSO.
0% control was 100% DMSO and 100% control was 10 μM Dexamethasone. Background solution (8 μL; assay buffer 10×, Stabilizing Peptide, DTT and ice cold MQ water) was added to the background wells. GS Red solution (7 μL; assay buffer 10×, Stabilizing Peptide, DTT, GS Red and ice cold water) was added to all wells except background wells. GR solution (7 μL; assay buffer 10×, Stabilizing Peptide, DTT, GR and ice cold water) was added to all wells. The plate was sealed and incubated in a dark at room temperature for 2 hours.

| Compound | IC50 [nM] |
| --- | --- |
| Cc1cc(C)c(S(=O)(=O)N[C@H]2CCN(c3cccc4ncccc34)C2)c(C)c1 [Example 1, 2,4,6-Trimethyl-N-[(3S)-1-quinolin-5-ylpyrrolidin-3-yl]benzenesulfonamide] | 48 |
| O=S(=O)(N[C@H]1CCN(c2cccc3c2cnn3-c2ccc(F)nc2)C1)c1c(Cl)cc(Cl)cc1Cl [Example 3, 2,4,6-Trichloro-N-[(3S)-1-[1-(6-fluoropyridin-3-yl)-1H-indazol-4-yl]pyrrolidin-3-yl]benzenesulfonamide] | 19 |
| Cc1cc(C)c(S(=O)(=O)N[C@H]2CCN(c3cccc4c3cnn4-c3ccc(F)nc3)C2)c(C)c1 [Example 7, N-{(3S)-1-[1-(6-Fluoropyridin-3-yl)-1H-indazol-4-yl]pyrrolidin-3-yl}-2,4,6-trimethylbenzenesulfonamide] | 38 |
| Cc1nn(C2CCCC2)c(C)c1S(=O)(=O)N[C@H]1CCN(c2cccc3c2cnn3-c2ccc(F)cc2)C1 [Example 9, 1-Cyclopentyl-N-{(3S)-1-[1-(4-fluorophenyl)-1H-indazol-4-yl]pyrrolidin-3-Yl}-3,5-dimethyl-1H-pyrazole-4-sulfonamide] | 120 |

The next lines start with the values.

| IC50 [nM] | Compound |
| --- | --- |
| 17 | O=S(=O)(N[C@H]1CCN(c2cccc3ncccc23)C1)c1c(Cl)cc(Cl)cc1Cl [Example 2, 2,4,6-Trichloro-N-[(3S)-1-quinolin-5-ylpyrrolidin-3-yl]benzenesulfonamide] |
| 25 | O=S(=O)(N[C@H]1CCN(c2cccc3c2cnn3-c2ccc(F)cc2)C1)c1c(Cl)cc(Cl)cc1Cl [Example 4, 2,4,6-Trichloro-N-{(3S)-1-[1-(4-fluorophenyl)-1H-indazol-4-yl]pyrrolidin-3-yl}benzenesulfonamide] |
| 25 | Cc1cc(Cl)cc(Cl)c1S(=O)(=O)N[C@H]1CCN(c2cccc3c2cnn3-c2ccc(F)nc2)C1 [Example 5, 2,4-Dichloro-N-{(3S)-1-[1-(6-fluoropyridin-3-yl)-1H-indazol-4-yl]pyrrolidin-3-yl}-6-methylbenzenesulfonamide] |
| 26 | Cc1cc(Cl)cc(Cl)c1S(=O)(=O)N[C@H]1CCN(c2cccc3ncccc23)C1 [Example 6, 2,4-Dichloro-6-methyl-N-[(3S)-1-quinolin-5-ylpyrrolidin-3-yl]benzenesulfonamide] |
